Test results as given in publication PMC3535377 (Amino Acids, 2011).

How the values were obtained:
human TG6 (T021; Zedira) [1] = biological target: T1, human TG6 (T021; Zedira) (Homo sapiens, UniProt O95932); experiment: fluorescence isopeptidase; assay type: biochemical; conditions: 37°C, Ca2+-activated; allosteric
T1 sequence (O95932 1-706): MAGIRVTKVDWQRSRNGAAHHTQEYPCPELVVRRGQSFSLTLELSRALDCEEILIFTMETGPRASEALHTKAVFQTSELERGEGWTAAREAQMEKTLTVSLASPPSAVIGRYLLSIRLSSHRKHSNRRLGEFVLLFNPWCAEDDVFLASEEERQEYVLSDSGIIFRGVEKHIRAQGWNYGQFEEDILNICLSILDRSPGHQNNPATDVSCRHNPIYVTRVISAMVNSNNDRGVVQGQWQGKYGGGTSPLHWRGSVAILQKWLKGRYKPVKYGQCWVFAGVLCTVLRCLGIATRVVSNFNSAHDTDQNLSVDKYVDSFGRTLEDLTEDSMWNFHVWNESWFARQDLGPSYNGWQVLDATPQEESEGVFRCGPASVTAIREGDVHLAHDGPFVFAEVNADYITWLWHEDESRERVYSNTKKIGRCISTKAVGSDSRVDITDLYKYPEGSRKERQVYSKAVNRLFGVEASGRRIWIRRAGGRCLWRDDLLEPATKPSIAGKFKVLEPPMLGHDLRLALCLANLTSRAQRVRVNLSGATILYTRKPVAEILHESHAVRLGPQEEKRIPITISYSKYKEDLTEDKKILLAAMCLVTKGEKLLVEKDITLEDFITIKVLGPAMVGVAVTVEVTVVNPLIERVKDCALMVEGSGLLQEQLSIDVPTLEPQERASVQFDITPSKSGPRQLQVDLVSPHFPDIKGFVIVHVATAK

human TG6 (T021; Zedira) [2] = biological target: T1, human TG6 (T021; Zedira); experiment: fluorescence isopeptidase; assay type: biochemical

| IC50 (human TG6 (T021; Zedira) [2]) [µM] | Structure (SMILES) | half-maximal inhibition (human TG6 (T021; Zedira) [1]) |
| --- | --- | --- |
| – | Nc1nc2c(ncn2[C@@H]2O[C@H](COP(=O)(O)OP(=O)(O)O)[C@@H](O)[C@H]2O)c(=O)[nH]1 [GDP] | Activity of TG6 is inhibited to a similar degree by GTP and GDP |
| – | Nc1nc2c(ncn2[C@@H]2O[C@H](COP(=O)(O)O)[C@@H](O)[C@H]2O)c(=O)[nH]1 [GMP] | but the affinity for GMP is low |
| – | Nc1nc2c(ncn2[C@@H]2O[C@H](COP(=O)(O)OP(=O)(O)OP(O)(O)=S)[C@@H](O)[C@H]2O)c(=O)[nH]1 [GTPγS] | The non-hydrolyzable GTP analogue GTPγS is a more effective inhibitor than GTP |
| 200 | Nc1nc2c(ncn2[C@@H]2O[C@H](COP(=O)(O)OP(=O)(O)OP(=O)(O)O)[C@@H](O)[C@H]2O)c(=O)[nH]1 [GTP] | – |
| ~1000 | Nc1ncnc2c1ncn2[C@@H]1O[C@H](COP(=O)(O)OP(=O)(O)OP(=O)(O)O)[C@@H](O)[C@H]1O [ATP] | – |
